Test results reported in ChEMBL document CHEMBL4359862, “Cinnamamide: An insight into the pharmacological advances and structure-activity relationships” (Eur J Med Chem, 2019).
Converted amounts (≈) assume the structure as drawn. Each block holds one molecule with its values, some of them ahead of it.

Columns and labels:
Beta-secretase 1 = Beta-secretase 1 (Homo sapiens, UniProt P56817); assay: Inhibition of recombinant human BACE 1 using Rh-EVNL-DAEFK-Quencher as substrate incubated for 60 mins by fluorescence based assay
Sequence of Beta-secretase 1 (P56817 whole entry): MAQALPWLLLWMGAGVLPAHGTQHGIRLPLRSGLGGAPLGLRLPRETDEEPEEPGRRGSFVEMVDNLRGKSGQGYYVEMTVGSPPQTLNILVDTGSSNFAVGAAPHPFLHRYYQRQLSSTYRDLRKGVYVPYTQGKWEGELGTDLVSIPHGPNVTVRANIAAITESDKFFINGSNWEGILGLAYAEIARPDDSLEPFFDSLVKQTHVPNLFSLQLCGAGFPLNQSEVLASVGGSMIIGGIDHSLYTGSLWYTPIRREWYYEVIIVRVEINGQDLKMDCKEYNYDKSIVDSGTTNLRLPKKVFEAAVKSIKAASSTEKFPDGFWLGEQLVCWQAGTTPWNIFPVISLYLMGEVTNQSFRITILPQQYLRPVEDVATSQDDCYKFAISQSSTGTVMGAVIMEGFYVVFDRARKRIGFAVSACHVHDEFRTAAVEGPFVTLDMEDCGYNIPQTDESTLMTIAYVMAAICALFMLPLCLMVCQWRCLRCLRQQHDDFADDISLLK

Escherichia coli [1] = assay: Antibacterial activity against Escherichia coli assessed as reduction in bacterial cell viability incubated for 24 hrs by serial dilution assay; type: functional
Candida albicans = assay: Antifungal activity against Candida albicans assessed as reduction in fungal cell growth incubated for 48 hrs by serial dilution assay; type: functional
DU-145 = assay: Antiproliferative activity against human DU145 cells assessed as reduction in cell viability incubated for 48 hrs by MTT assay; type: functional, cell-based; conditions: DU-145, 48 h
MGC-803 = assay: Antiproliferative activity against human MGC803 cells; type: functional, cell-based
[2] = biological target: Telomerase reverse transcriptase (Homo sapiens, UniProt O14746); assay: Inhibition of telomerase (unknown origin)
Sequence of Telomerase reverse transcriptase (O14746 whole entry): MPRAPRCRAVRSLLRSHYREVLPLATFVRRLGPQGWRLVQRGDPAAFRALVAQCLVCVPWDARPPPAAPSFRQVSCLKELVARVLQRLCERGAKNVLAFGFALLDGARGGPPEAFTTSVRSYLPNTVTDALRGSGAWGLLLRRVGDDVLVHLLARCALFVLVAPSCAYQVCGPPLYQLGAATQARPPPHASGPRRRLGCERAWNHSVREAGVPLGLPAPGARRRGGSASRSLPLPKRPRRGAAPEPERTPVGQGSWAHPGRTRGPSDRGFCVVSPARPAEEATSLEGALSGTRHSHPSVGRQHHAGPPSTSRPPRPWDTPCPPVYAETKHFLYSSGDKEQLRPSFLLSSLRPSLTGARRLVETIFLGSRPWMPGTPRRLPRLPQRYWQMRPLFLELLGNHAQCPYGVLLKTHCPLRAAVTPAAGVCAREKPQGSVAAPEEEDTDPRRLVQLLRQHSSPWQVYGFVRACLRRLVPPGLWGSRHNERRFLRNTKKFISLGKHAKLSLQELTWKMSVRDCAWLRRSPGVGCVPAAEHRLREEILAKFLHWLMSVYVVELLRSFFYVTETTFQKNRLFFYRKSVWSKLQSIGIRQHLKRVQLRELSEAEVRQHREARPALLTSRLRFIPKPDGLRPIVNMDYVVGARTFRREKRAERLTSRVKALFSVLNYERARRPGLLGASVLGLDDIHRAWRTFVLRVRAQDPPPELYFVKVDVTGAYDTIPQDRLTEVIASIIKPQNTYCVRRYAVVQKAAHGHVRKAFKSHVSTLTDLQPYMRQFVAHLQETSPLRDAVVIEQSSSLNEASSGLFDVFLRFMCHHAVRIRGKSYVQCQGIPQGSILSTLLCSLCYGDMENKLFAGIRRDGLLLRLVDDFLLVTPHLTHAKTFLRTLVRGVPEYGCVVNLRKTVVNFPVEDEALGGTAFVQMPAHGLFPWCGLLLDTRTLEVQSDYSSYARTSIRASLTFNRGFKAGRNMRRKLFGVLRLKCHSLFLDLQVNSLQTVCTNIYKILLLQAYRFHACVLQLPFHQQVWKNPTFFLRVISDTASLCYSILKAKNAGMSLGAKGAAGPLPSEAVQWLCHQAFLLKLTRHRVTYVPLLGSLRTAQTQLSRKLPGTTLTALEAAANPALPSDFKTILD

Escherichia coli [3] = assay: Antibacterial activity against Escherichia coli assessed as reduction in bacterial cell viability by well plate method; type: functional
Bacillus subtilis = assay: Antibacterial activity against Bacillus subtilis assessed as reduction in bacterial cell viability by well plate method; type: functional
[4] = Inhibition of LFA1/ICAM1 (unknown origin) interaction; set-up: species or system Homo sapiens
[5] = biological target: T1, Tyrosinase (Agaricus bisporus) (UniProt O42713); assay: Inhibition of mushroom tyrosinase at 25 uM using L-tyrosine as substrate incubated for 30 mins relative to control
T1 sequence (whole entry): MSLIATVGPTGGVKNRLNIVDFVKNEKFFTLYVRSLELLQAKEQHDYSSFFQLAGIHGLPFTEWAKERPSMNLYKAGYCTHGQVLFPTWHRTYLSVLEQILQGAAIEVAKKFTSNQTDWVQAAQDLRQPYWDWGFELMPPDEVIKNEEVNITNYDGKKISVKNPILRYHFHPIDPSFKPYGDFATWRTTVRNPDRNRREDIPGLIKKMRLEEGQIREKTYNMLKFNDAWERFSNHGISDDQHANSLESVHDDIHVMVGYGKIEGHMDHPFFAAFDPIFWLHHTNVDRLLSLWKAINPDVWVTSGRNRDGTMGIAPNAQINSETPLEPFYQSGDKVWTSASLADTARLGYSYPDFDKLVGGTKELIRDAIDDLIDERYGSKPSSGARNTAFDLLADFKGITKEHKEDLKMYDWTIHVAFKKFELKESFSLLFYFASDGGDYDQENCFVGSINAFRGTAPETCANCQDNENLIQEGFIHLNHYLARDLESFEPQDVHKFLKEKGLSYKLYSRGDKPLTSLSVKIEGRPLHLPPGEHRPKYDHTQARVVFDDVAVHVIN

P388 = assay: Antiproliferative activity against mouse P388 cells assessed as reduction in cell viability by MTT assay; type: functional, cell-based
HT-29 = assay: Antiproliferative activity against human HT-29 cells assessed as reduction in cell viability by MTT assay; type: functional, cell-based
P-selectin = biological target: T2, P-selectin (Homo sapiens, UniProt P16109); assay: Inhibition of P-selectin (unknown origin) incubated for 30 mins by ELISA
T2 sequence (P16109 whole entry): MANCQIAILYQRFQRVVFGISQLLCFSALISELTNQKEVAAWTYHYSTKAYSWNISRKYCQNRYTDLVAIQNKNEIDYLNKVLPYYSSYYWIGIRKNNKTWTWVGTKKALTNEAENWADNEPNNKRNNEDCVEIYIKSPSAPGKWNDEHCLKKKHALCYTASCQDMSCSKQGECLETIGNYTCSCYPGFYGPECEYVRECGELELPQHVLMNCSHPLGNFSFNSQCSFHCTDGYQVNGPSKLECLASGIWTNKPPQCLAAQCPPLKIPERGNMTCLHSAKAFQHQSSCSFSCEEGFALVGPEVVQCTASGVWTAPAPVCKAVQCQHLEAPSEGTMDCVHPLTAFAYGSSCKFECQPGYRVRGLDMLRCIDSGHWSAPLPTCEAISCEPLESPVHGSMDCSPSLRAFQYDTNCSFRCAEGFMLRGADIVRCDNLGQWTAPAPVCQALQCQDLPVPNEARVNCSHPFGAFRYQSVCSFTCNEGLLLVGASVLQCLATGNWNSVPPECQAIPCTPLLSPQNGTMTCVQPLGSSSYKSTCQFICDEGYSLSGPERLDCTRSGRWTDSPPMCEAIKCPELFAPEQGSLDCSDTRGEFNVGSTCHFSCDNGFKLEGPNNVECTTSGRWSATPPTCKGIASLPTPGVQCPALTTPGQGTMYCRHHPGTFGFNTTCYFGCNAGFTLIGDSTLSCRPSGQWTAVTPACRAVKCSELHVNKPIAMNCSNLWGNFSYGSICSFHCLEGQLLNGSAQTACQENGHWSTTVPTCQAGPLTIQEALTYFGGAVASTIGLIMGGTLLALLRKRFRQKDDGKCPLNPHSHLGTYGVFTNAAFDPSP

U-937 = assay: Cell cycle arrest in human U937 cells assessed as increase in accumulation in G2 phase incubated for 6 hrs by propidium iodide staining based flow cytometry; type: functional; conditions: U-937, 6 h
[6] = Antioxidant activity assessed as DPPH free radical scavenging activity by spectrophotometry; type: functional
B2 bradykinin receptor = biological target: T3, B2 bradykinin receptor (Cavia porcellus, UniProt O70526); assay: Displacement of [3H]BK from Bradykinin B2 Receptor in guinea pig ileum by liquid scintillation counter; type: tissue-based
T3 sequence (O70526 whole entry): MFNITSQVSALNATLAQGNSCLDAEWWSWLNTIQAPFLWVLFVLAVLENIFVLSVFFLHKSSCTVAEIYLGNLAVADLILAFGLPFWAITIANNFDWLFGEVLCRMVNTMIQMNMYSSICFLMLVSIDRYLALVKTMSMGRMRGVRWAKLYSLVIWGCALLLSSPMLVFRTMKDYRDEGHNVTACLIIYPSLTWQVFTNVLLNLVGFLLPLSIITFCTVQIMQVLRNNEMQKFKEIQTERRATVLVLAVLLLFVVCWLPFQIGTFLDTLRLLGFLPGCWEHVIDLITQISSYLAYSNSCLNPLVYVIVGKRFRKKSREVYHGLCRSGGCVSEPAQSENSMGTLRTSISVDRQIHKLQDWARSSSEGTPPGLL

[7] = biological target: Epidermal growth factor receptor (Homo sapiens, UniProt P00533); assay: Inhibition of EGFR (unknown origin)
Sequence of Epidermal growth factor receptor (P00533 whole entry): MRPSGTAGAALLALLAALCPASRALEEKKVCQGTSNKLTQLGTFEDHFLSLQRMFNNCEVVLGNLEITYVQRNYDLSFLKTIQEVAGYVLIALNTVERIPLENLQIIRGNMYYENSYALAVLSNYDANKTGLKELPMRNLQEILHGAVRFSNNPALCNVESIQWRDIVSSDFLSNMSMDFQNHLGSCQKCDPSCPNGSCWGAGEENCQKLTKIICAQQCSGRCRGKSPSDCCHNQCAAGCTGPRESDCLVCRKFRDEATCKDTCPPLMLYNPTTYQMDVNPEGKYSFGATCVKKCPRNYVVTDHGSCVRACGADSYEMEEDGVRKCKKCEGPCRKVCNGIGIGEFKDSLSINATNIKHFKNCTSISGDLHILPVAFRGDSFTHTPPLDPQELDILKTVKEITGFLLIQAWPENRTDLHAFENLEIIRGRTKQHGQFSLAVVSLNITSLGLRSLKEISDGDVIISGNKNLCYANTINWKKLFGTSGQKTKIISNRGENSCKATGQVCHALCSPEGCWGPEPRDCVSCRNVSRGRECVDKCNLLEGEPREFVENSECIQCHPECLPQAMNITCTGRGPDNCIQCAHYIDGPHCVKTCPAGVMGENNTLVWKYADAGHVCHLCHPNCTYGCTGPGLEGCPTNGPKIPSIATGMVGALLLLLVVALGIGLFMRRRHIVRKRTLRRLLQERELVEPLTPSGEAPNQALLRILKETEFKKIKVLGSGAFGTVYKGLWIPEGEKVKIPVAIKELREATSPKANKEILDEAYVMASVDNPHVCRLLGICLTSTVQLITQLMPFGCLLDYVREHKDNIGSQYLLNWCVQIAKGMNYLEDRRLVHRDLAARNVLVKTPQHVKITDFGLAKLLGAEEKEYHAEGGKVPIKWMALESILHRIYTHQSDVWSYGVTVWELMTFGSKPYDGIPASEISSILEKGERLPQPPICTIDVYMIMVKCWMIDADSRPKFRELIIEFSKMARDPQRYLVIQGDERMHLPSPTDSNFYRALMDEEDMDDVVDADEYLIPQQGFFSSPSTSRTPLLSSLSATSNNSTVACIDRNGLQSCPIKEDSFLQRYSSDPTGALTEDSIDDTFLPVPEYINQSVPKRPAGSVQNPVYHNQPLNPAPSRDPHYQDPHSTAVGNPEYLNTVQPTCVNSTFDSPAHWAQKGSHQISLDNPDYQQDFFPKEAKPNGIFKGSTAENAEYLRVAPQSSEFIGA

[8] = biological target: Vascular endothelial growth factor receptor 2 (Homo sapiens, UniProt P35968); assay: Inhibition of VEGFR (unknown origin)
Sequence of Vascular endothelial growth factor receptor 2 (P35968 whole entry): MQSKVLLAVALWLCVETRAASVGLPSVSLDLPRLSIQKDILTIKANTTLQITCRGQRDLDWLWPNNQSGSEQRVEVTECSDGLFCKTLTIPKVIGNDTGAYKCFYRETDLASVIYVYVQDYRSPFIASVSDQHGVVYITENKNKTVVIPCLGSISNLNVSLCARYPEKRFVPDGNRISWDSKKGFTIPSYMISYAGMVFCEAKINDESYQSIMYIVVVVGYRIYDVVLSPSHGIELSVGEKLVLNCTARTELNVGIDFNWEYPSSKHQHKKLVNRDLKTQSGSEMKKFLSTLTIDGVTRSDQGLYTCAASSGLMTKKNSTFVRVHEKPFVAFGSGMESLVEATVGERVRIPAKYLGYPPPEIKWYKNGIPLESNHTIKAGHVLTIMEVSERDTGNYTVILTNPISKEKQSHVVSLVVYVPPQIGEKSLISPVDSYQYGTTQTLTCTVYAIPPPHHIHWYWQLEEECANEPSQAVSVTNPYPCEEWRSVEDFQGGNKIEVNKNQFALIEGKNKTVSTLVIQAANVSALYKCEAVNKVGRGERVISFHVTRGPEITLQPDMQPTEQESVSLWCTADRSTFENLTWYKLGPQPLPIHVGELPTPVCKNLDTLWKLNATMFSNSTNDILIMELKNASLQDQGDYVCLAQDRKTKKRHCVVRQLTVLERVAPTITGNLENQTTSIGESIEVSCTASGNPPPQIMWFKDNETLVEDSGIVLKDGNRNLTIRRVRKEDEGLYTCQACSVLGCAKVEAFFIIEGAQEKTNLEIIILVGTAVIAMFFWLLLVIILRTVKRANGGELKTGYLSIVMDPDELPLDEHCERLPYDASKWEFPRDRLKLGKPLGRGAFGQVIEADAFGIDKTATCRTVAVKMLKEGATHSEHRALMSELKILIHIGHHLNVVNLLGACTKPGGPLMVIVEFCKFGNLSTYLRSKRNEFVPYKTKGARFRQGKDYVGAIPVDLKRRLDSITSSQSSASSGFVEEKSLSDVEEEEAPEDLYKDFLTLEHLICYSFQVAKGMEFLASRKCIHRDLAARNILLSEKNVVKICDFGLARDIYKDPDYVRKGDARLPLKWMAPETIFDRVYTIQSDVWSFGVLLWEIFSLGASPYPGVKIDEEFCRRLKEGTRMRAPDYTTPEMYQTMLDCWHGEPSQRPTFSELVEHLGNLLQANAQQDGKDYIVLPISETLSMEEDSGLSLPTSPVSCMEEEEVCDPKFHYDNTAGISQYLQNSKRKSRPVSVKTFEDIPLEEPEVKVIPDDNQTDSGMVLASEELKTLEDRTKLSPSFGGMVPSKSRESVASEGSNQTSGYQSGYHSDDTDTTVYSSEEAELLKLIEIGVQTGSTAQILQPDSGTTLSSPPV

[9] = Inhibition of recombinant LFA1/ICAM1 (unknown origin) interaction incubated for 1 hr by time resolved fluorimetry; set-up: species or system Homo sapiens

Compound: O=C(/C=C/c1ccccc1)NCCc1cc2cc(O)ccc2[nH]1
IC50 (Beta-secretase 1): 86.7 µM

Compound: O=C(/C=C/c1ccccc1)Nc1ccc([N+](=O)[O-])cc1
log(1/MIC) (Escherichia coli [1]): 2.43
log(1/MIC) (Candida albicans): 2.43

Compound: C=CCOc1cc(/C=C/C(=O)Nc2cc(OC)c(OC)c(OC)c2)ccc1N/C=C\C(=O)c1ccc(OC)c([N+](=O)[O-])c1
IC50 (DU-145): 8.91 µM

Compound: CCCc1n[nH]c(C(N)=O)c1NC(=O)/C=C/c1ccco1
IC50 (MGC-803): 3.01 µM
IC50 [2]: 1.02 µM

Compound: COc1cc(/C=C/C(=O)N2CCOCC2)cc(OC)c1OC
MIC (Escherichia coli [3]): 25 µM (≈ 7.68 µg/mL)
MIC (Bacillus subtilis): 25 µM (≈ 7.68 µg/mL)

Compound: COc1cc(/C=C/C(=O)NCCc2cc(OC)c(O)c(OC)c2)ccc1O
IC50 (P388): 4 µM
IC50 (HT-29): 4 µM

Compound: CCCCCCCCCCCCCCCCNC(=O)/C=C/c1ccc(-c2[nH]c(-c3ccc(C4=NOC(C(=O)O)C4)cc3)nc2-c2ccc(/C=C/C(=O)O)cc2)cc1 (stereo not given)
IC50 (P-selectin): 0.3 µM

Compound: COc1ccc(/C=C/C(=O)NC23CC4CC(CC(C4)C2)C3)c2ccccc12
IC50 (U-937): 7.1 µM

Compound: O=C(/C=C/c1ccc(O)c(O)c1)NCCc1c[nH]c2ccc(O)cc12 [N-CAFFEOYLSEROTONIN]
EC50 [6]: 8.1 µM

Compound: CCCc1n[nH]c(C(N)=O)c1NC(=O)/C=C/c1ccccc1
IC50 (MGC-803): 3.44 µM

Compound: CNC(=O)c1ccc(/C=C/C(=O)NCC(=O)N(C)c2ccc(Cl)c(COc3cccc4ccc(C)nc34)c2Cl)cn1
IC50 (B2 bradykinin receptor): 0.00046 µM

Compound: COc1ccc(/C=C/C(=O)Nc2cc3c(Nc4ccc(F)c(Cl)c4)ncnc3cc2O[C@@H]2CCOC2)cc1
IC50 [7]: 0.009 µM
IC50 [8]: 0.0036 µM

Next, values leading:

log(1/MIC) (Escherichia coli [1]): 2.43
log(1/MIC) (Candida albicans): 2.43
Compound: O=C(/C=C/c1ccccc1)N1CCCCC1

MIC (Escherichia coli [3]): 6.12 µM (≈ 1.88 µg/mL)
MIC (Bacillus subtilis): 6.12 µM (≈ 1.88 µg/mL)
Compound: COc1ccc(/C=C/C(=O)N2CCOCC2)c(OC)c1OC

IC50 [4]: 0.04 µM
Compound: CC(=O)N1CCN(C(=O)/C=C/c2ccc(Sc3ccc4c(c3)OCCO4)c(Cl)c2)CC1

inhibition [5]: 95.7%
Compound: O=C(/C=C/c1ccc(O)cc1O)N1CCOCC1

inhibition [5]: 94.4%
Compound: CN1CCN(C(=O)/C=C/c2ccc(O)cc2O)CC1

IC50 [9]: 0.035 µM
Compound: CC(=O)N1CCN(C(=O)/C=C/c2ccc(Sc3ccccc3C(C)C)c([N+](=O)[O-])c2)CC1 [A-286982]
